Test results taken from patent US4006204A, “Phosphoric acid diesters” (priority 1975, dated 1977).
Like-named read-outs stand apart in the source and are kept apart here.

Columns and labels:
[1] = system: mouse diarrhea induced by intraperitoneal prostaglandin E2; assay: Prevention of mouse diarrhea induced by intraperitoneal prostaglandin E2 injection; assay type: in vivo; conditions: for ED50: Mus musculus, ip, administered intraperitoneally
Description: Compounds 1 and 2 of Table 2 were tested for their effectiveness in preventing mouse diarrhea induced by intraperitoneal prostaglandin E2 injection. The data are summarized below in Table 5:
^1 dose administered i.p.

prostaglandin synthetase = molecular target: T1, prostaglandin synthetase (Bos taurus, UniProt O62664); assay: Prostaglandin synthetase inhibition (procedure of Flower et al.); assay type: biochemical, bovine
T1 construct: enzyme source was bovine; from tissue; host or cells: bovine seminal vesicles
T1 sequence (O62664 25-600): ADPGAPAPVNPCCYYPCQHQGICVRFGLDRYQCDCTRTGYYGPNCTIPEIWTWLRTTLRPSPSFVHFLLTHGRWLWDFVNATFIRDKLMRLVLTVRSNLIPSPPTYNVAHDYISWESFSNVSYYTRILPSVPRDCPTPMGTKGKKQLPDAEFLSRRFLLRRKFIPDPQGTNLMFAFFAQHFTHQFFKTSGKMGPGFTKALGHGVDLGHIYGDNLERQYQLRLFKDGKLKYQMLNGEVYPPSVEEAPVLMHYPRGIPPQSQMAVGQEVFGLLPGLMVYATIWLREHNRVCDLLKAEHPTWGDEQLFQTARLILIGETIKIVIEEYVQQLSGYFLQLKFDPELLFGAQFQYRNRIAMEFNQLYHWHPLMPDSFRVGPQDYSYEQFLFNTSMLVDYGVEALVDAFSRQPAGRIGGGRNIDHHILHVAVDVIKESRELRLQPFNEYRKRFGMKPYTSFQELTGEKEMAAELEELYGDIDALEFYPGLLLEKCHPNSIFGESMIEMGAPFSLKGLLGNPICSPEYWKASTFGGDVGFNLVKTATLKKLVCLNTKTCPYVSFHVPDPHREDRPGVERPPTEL
Description: Compounds were tested for prostaglandin synthetase inhibition via the procedure of Flower et al. (Prostaglandins 4: 325, 1973).

prostaglandin receptor = assay: Blocking of prostaglandin receptor activity, guinea pig ileum vs Prostaglandin E2; assay type: biochemical; conditions: for prostaglandin receptor blocking activity (conclusion in words): summary of Table 1
Description: The following compounds were tested for their biological activity in blocking prostaglandin receptor activity. This test is useful in that many kinds of inflammation are at least partially prostaglandin mediated. Table 1 below tabulates the results.
^1 PGE2 : Guinea pig ileum IC50 vs Prostaglandin E2

[2] = system: croton oil-induced rat ear edema; assay: Tonelli anti-inflammatory animal test, croton oil-induced rat ear edema; assay type: in vivo; conditions: for % protection at 0.3% / % protection at 1.0% / % protection at 3.0%: croton oil rat ear edema; for potency in reducing edema produced by croton oil (conclusion in words): compared with hydrocortisone, summary of Table 4
Description: The following compounds were tested in the standard Tonelli anti-inflammatory animal test model for their effectiveness in preventing croton oil-induced rat ear edema.

[3] = enzyme source bovine seminal vesicles

Structure (SMILES) | % prevention of diarrhea ([1]; 30 Mg/kg i.p.) [%] | % prevention of diarrhea ([1]; 60 Mg/kg i.p.) [%] | % prevention of diarrhea ([1]; 100 Mg/kg i.p.) [%] | ED50 [1] [mg/kg] | IC50 (prostaglandin synthetase) [µM] | prostaglandin synthetase blocking (conclusion in words) (prostaglandin synthetase; compared with indomethacin, summary of Table 3) | prostaglandin receptor blocking activity (conclusion in words) (prostaglandin receptor) | % protection at 0.3% [2] [%] | % protection at 1.0% [2] [%] | % protection at 3.0% [2] [%] | potency in reducing edema produced by croton oil (conclusion in words) [2] | IC50 (prostaglandin synthetase; enzyme source bovine seminal vesicles, read-out: ID50 vs Prostaglandin E2 (prostaglandin synthetase inhibition)) [µM] | Guinea pig ileum inhibition vs Prostaglandin E2 (prostaglandin receptor; Guinea pig ileum, vs PGE2, at 30 × 10^^-6) | prostaglandin synthetase inhibition at 50 μM (prostaglandin synthetase; [3])
CC(OP(=O)(O)Oc1ccccc1)c1ccc(C2CCCCC2)c(Cl)c1 (stereo not drawn) [Compound 1] | 0 | 60 | 70 | ~60 | 18 | effective blocker of prostaglandin synthetase, comparable in effect to indomethacin | prostaglandin receptor blockers | 0.0 | 23.4 | 53.8 | approximately as potent as hydrocortisone | – | – | –
CC(COP(=O)(O)Oc1ccccc1)c1ccc(C2CCCCC2)c(Cl)c1 (stereo not drawn) [Compound 2] | 40 | 50 | 70 | ~60 | 50 | – | prostaglandin receptor blockers | 15.9 | 51.3 | 65.4 | approximately as potent as hydrocortisone | – | – | –
CC(C(=O)O)c1ccc(C2CCCCC2)c(Cl)c1 (stereo not drawn) [Compound 3] | – | – | – | – | – | – | weak or have no prostaglandin-blocking activity | – | – | – | – | 2 to 4 | No inhibition | –
CC(CO)c1ccc(C2CCCCC2)c(Cl)c1 (stereo not drawn) [Compound 4, reference compound] | – | – | – | – | – | – | weak or have no prostaglandin-blocking activity | – | – | – | – | – | – | no inhibition
CC(O)c1ccc(C2CCCCC2)c(Cl)c1 (stereo not drawn) [Compound 5, reference compound] | – | – | – | – | – | – | – | – | – | – | – | – | – | insignificant
C[C@]12CCC(=O)C=C1CC[C@@H]1[C@@H]2[C@@H](O)C[C@@]2(C)[C@H]1CC[C@]2(O)C(=O)CO [hydrocortisone, reference compound] | – | – | – | – | – | – | – | 13.8 | 45.9 | 68.7 | – | – | – | –
